Reference: patent US6495571B1, “Pyridine compounds, use and preparation thereof” (Southern Research Institute, priority 1999, dated 2002)
Where two headings read alike, the source gives them in different places.

How the values were obtained:
SF-295 CNS tumor = test: In vivo antitumor activity, sc SF-295 xenograft; set-up: species or system Athymic mice (Ncr-nu); details: IP 90 mg/kg/dose, Days 9-13
OVCAR-5 ovarian tumor = test: In vivo antitumor activity, sc OVCAR-5 xenograft; set-up: species or system Athymic mice (Ncr-nu); details: IP 90 mg/kg/dose, Days 12-16
[1] = test system: UISO-BCA-1 human mammary tumor; test: In vivo antitumor activity, sc UISO-BCA-1 xenograft; set-up: species or system Athymic mice (Ncr-nu); details: IP 90 mg/kg/dose, Days 16-20
[2] = test system: P388/L-PAM (melphalan-resistant) leukemia; details: for activity in this tumor model (in words): mouse, in vivo
HT29 human colon tumor = test: In vivo antitumor activity, sc HT29 xenograft; set-up: species or system Athymic mice (Ncr-nu)
[3] = test system: NCI-H460 nonsmall cell lung tumor; test: In vivo antitumor activity, sc NCI-H460 xenograft; set-up: species or system Athymic mice (Ncr-nu); details: IP 90 mg/kg/dose, Days 6-10
[4] = test system: P388/BCNU (carmustine-resistant) leukemia; test: Antitumor activity against IP-implanted P388/BCNU leukemia
[5] = test system: P388/CPA (cyclophosphamide-resistant) leukemia; format: in vivo, CD2F1 female mice; details: for 50-DAY SURV./TOTAL / % ILS / APPROX. NET LOG10 CHANGE IN TUMOR BURDEN AT END OF Rx: Q1D × 5 (1)
[6] = test system: human MX-1 mammary tumor (ic, 10^6 cells); test: In vivo antitumor activity, i.c.-implanted MX-1 xenograft; details: for Median % ILS (dying mice only): Days 1-5
[7] = test system: ZR-75-1 human mammary tumor; test: In vivo antitumor activity, sc ZR-75-1 xenograft; set-up: species or system Athymic mice (Ncr-nu)
[8] = test system: human MX-1 mammary tumor (sc, 30-40 mg fragments); test: In vivo antitumor activity, s.c.-implanted MX-1 xenograft; set-up: species or system Athymic mice (Ncr-nu)
MCF7 human mammary tumor = test: In vivo antitumor activity, sc MCF7 xenograft; set-up: species or system Athymic mice (Ncr-nu)
[9] = test system: NCI-H82 small cell lung tumor; test: In vivo antitumor activity, sc NCI-H82 xenograft; set-up: species or system Athymic mice (Ncr-nu)
SK-MEL-28 melanoma = test: In vivo antitumor activity, sc SK-MEL-28 xenograft; set-up: species or system Athymic mice (Ncr-nu); details: IP 90 mg/kg/dose, Days 8-12
CAKI-1 human renal tumor = test: In vivo antitumor activity, sc CAKI-1 xenograft; set-up: species or system Athymic mice (Ncr-nu)
U251 human CNS tumor = test: In vivo antitumor activity, sc U251 xenograft; set-up: species or system Athymic mice (Ncr-nu)
[10] = 14C-penclomedine, tumor-bearing rats; cited from earlier work
Cytotoxicity in vitro = format: cell-based
[11] = one hour infusion for 5 consecutive days, patients; cited from earlier work
[12] = rats; cited from earlier work
[13] = dogs; cited from earlier work
[14] = IP 60.0 mg/kg/dose, Q1D × 5 (1)
[15] = IP 90.0 mg/kg/dose, Q1D × 5 (1)
[16] = IP 135.0 mg/kg/dose, Q1D × 5 (1)
[17] = highest nontoxic doses evaluated, versus DM-PEN
[18] = highest nontoxic doses evaluated, versus PEN
[19] = oral (gavage) 135 mg/kg/dose, Days 13-17
[20] = optimal doses (LD10 or less), schedule QD1-5, administered LP.

## COc1nc(C(Cl)(Cl)Cl)c(Cl)c(OC(C)=O)c1Cl [DM-A-PEN]
SF-295 CNS tumor
  T-C: 0.7 days
  Tumor-Free-Surv/Total: 0/5
P388/0 murine leukemia; [14]
  50-DAY SURV./TOTAL: 0/6
  % ILS: +72%
  APPROX. NET LOG10 CHANGE IN TUMOR BURDEN AT END OF Rx: −3.1
P388/0 murine leukemia; [15]
  50-DAY SURV./TOTAL: 0/6
  % ILS: +95%
  APPROX. NET LOG10 CHANGE IN TUMOR BURDEN AT END OF Rx: −5.0
P388/0 murine leukemia; [16]
  50-DAY SURV./TOTAL: 0/6
  % ILS: +150%
  APPROX. NET LOG10 CHANGE IN TUMOR BURDEN AT END OF Rx: ca −6.8
  Lethality of the dosage (LD mark beside % ILS): LD33
P388/0 murine leukemia; [17]
  more active than DM-PEN by log cell kill: 1.9 log cell kill
P388/0 murine leukemia; [18]
  more active than PEN by log cell kill: 0.4 log cell kill
OVCAR-5 ovarian tumor
  T-C: 4.0 days
  Tumor-Free-Surv/Total: 0/5
[1]
  T-C: -2.4 days
  Tumor-Free-Surv/Total: 0/5
[2]; [14]
  50-DAY SURV./TOTAL: 0/6
  % ILS: +14%
  APPROX. NET LOG10 CHANGE IN TUMOR BURDEN AT END OF Rx: +1.2
[2]; [15]
  50-DAY SURV./TOTAL: 0/6
  % ILS: +14%
  APPROX. NET LOG10 CHANGE IN TUMOR BURDEN AT END OF Rx: +1.2
[2]; [16]
  50-DAY SURV./TOTAL: 0/6
  % ILS: +35%
  APPROX. NET LOG10 CHANGE IN TUMOR BURDEN AT END OF Rx: −0.8
  Lethality of the dosage (LD mark beside % ILS): LD17
  MEDIAN DAY OF DEATH: 19.8
[2]; highest nontoxic doses evaluated, versus PEN or DM-PEN
  more active than PEN or DM-PEN by log cell kill: 0.2-0.3 log cell kill
[2]
  activity in this tumor model (in words): none of the three showed significant activity
HT29 human colon tumor; IP 90 mg/kg/dose, Days 14-18
  T-C: 5.8 days
  Tumor-Free-Surv/Total: 0/5
HT29 human colon tumor; s.c.-implanted
  activity (in words): moderate to modest activity
[3]
  T-C: -0.6 days
  Tumor-Free-Surv/Total: 0/5
[4]; [14]
  50-DAY SURV./TOTAL: 1/6
  % ILS: +44%
  APPROX. NET LOG10 CHANGE IN TUMOR BURDEN AT END OF Rx: 0
  MEDIAN DAY OF DEATH: 13.0
[4]; [15]
  50-DAY SURV./TOTAL: 0/6
  % ILS: +77%
  APPROX. NET LOG10 CHANGE IN TUMOR BURDEN AT END OF Rx: −2.3
[4]; [16]
  50-DAY SURV./TOTAL: 0/6
  APPROX. NET LOG10 CHANGE IN TUMOR BURDEN AT END OF Rx: −4.1
  Lethality of the dosage (LD mark beside % ILS): LD17
[4]; [17]
  more active than DM-PEN by log cell kill: 1.5 log cell kill
[4]; [18]
  more active than PEN by log cell kill: 3.5 log cell kill
[5]; IP 60.0 mg/kg/dose
  50-DAY SURV./TOTAL: 0/6
  % ILS: +54%
  APPROX. NET LOG10 CHANGE IN TUMOR BURDEN AT END OF Rx: −1.1
[5]; IP 90.0 mg/kg/dose
  50-DAY SURV./TOTAL: 0/6
  % ILS: +86%
  APPROX. NET LOG10 CHANGE IN TUMOR BURDEN AT END OF Rx: −3.1
[5]; IP 135.0 mg/kg/dose
  50-DAY SURV./TOTAL: 0/6
  APPROX. NET LOG10 CHANGE IN TUMOR BURDEN AT END OF Rx: −5.7
[5]; [17]
  more active than DM-PEN by log cell kill: 4.6 log cell kill
[5]; [18]
  more active than PEN by log cell kill: 7.4 log cell kill
[6]; IP 60 mg/kg/dose
  Median % ILS (dying mice only): +60%
[6]; oral (gavage) 135 mg/kg/dose
  Median % ILS (dying mice only): +88%
[7]; IP 60 mg/kg/dose, Days 10-14
  Tumor-Free-Surv/Total: 0/5
[7]; IP 90 mg/kg/dose, Days 8-12
  Tumor-Free-Surv/Total: 0/5
[7]; s.c.-implanted
  activity (in words): moderate to modest activity
[8]; IP 60 mg/kg/dose, Days 14-18
  T-C: >38.3 days
  Tumor-Free-Surv/Total: 4/5
[8]; IP 60 mg/kg/dose, Days 15-19
  T-C: >37.2 days
  Tumor-Free-Surv/Total: 3/5
[8]; IP 90 mg/kg/dose, Days 12-16
  T-C: >41.0 days
  Tumor-Free-Surv/Total: 5/5
[8]; IP, Days 15-19, sc MX-1 bearing mice
  IP dosage marked (LD50): 60 (LD50) mg/kg/dose
[8]; [19]
  T-C: >38.5 days
  Tumor-Free-Surv/Total: 5/5
MCF7 human mammary tumor; IP 60 mg/kg/dose, Days 14-18
  T-C: 7.1 days
  Tumor-Free-Surv/Total: 0/5
MCF7 human mammary tumor; s.c.-implanted
  activity (in words): moderate to modest activity
[9]; IP 60 mg/kg/dose, Days 13-17
  T-C: 7.2 days
  Tumor-Free-Surv/Total: 0/5
[9]; s.c.-implanted
  activity (in words): moderate to modest activity
SK-MEL-28 melanoma
  T-C: 0.7 days
  Tumor-Free-Surv/Total: 0/5
CAKI-1 human renal tumor; IP 90 mg/kg/dose, Days 19-23
  T-C: 8.4 days
  Tumor-Free-Surv/Total: 0/5
CAKI-1 human renal tumor; s.c.-implanted
  activity (in words): moderate to modest activity
U251 human CNS tumor; IP 90 mg/kg/dose, Days 19-23
  Tumor-Free-Surv/Total: 0/5
U251 human CNS tumor; s.c.-implanted
  activity (in words): moderate to modest activity

## COc1nc(C(Cl)(Cl)Cl)c(Cl)c(OC)c1Cl [PEN, 3,5-dichloro-2,4-dimethoxy-6-(trichloromethyl)pyridine]
P388/0 murine leukemia; [14]
  50-DAY SURV./TOTAL: 0/6
P388/0 murine leukemia; [15]
  50-DAY SURV./TOTAL: 0/6
  APPROX. NET LOG10 CHANGE IN TUMOR BURDEN AT END OF Rx: −0.8
P388/0 murine leukemia; [16]
  50-DAY SURV./TOTAL: 0/6
  APPROX. NET LOG10 CHANGE IN TUMOR BURDEN AT END OF Rx: −4.8
[10]
  radioactive species in the brain: predominant radioactive species in the brain
[2]; [14]
  50-DAY SURV./TOTAL: 0/6
[2]; [15]
  50-DAY SURV./TOTAL: 0/6
[2]; [16]
  50-DAY SURV./TOTAL: 0/6
[2]
  activity in this tumor model (in words): none of the three showed significant activity
Cytotoxicity in vitro
  activity as cytotoxic agents in vitro: inactive
[11]
  neurotoxicity (dysmetria, ataxia, vertigo): principal dose limiting toxicity
[4]; [14]
  50-DAY SURV./TOTAL: 0/6
  % ILS: −6%
[4]; [15]
  50-DAY SURV./TOTAL: 0/6
  % ILS: 0%
  MEDIAN DAY OF DEATH: 9.0
[4]; [16]
  50-DAY SURV./TOTAL: 0/6
  % ILS: +27%
[5]; IP 60.0 mg/kg/dose
  50-DAY SURV./TOTAL: 0/6
  % ILS: −5%
[5]; IP 90.0 mg/kg/dose
  50-DAY SURV./TOTAL: 0/6
  % ILS: −5%
[5]; IP 135.0 mg/kg/dose
  50-DAY SURV./TOTAL: 0/6
  % ILS: −5%
[6]; Table 2 conditions
  cures: not
[6]; [20]
  Median % ILS (based on dying mice only): 88%
  Survivors: 0/5
[12]
  neurotoxicity (muscle tremors, incoordination, convulsions, reduced activity): Dose related neurotoxicity
[13]
  plasma penclomedine levels associated with severe emesis and seizures: above 30 μM
